For 7 molecules, MIC results are on record in patent US5529998A, “Benzoxazolyl- and benzothiazolyloxazolidinones” (Bayer Aktiengesellschaft, priority 1994, dated 1996).

Holding throughout (experiment): MIC, antibacterial activity (series dilution)
Holding throughout (assay type): cell-based

In one experiment the test system is E. coli Neumann. As to conditions: Escherichia coli, 37° C., about 20 hours. The procedure:
(§1) The MIC values were determined with the aid of the microdilution method in BH medium. Each test substance was dissolved in the nutrient medium. A concentration series of the test substances was prepared in the microtiter plate by serial dilution. Overnight cultures of the pathogens, which were first diluted 1:250 in the nutrient medium, were used for the inoculation. 100 μl portions of inoculation solution were added to 100 μl of the dilute nutrient solutions containing the active compound. The microtiter plates were incubated at 37° C. and read off after about 20 hours. The MIC value (μg/ml) indicates the lowest concentration of active compound at which no growth was detectable. The minimum inhibitory concentrations (MIC) were determined by the series dilution method on Iso-Sensitest agar (Oxoid). A series of agar plates which contained concentrations of the active compound which decreased by two-fold dilution each time was prepared for each test substance. The agar plates were inoculated with a multipoint inoculator (Denley). Overnight cultures of the pathogens which had been diluted beforehand such that each inoculation point contained about 10^4 colony-forming particles were used for the inoculation. The inoculated agar plates were incubated at 37° C. and the germ growth was read off up to about 20 hours. The MIC value (μg/ml) indicates the lowest concentration of active compound at which no growth was detectable with the naked eye.

In another experiment the test system is Klebs. 57 USA. The settings on record: 37° C., about 20 hours. Here is the method:
as §1

The subject of another experiment is Psdm. Bonn. The settings on record: 37° C., about 20 hours. Here is the method: as §1
The next experiment relates to Staph 25701. The settings on record: 37° C., about 20 hours. The procedure:
as §1

Another experiment concerns Staph. 133. As to conditions: 37° C., about 20 hours. The procedure:
as §1

A further experiment deals with Staph. 48N. The settings on record: 37° C., about 20 hours. Here is the method:
as §1

The test system of the next experiment is Staph. 9TV. The settings on record: 37° C., about 20 hours. Here is the method:
as §1

The structures appear in SMILES notation. In brackets after ≈: the same amount, converted by molar mass.

`CC(=O)NC[C@H]1CN(c2ccc3nc([S+](C)[O-])sc3c2)C(=O)O1` (stereo partly drawn) [Example 32, (5S)-3-(2-Methylsulphinyl-benzo[4,5-d]-thiazol-6-yl)-5-acetylaminomethyl-oxazolidin-2-one]: the MIC (commonly the smallest concentration in the dilution series that meets the test's criterion for growth inhibition) with E. coli Neumann is above 64 mg/L; with Klebs. 57 USA, above 64 mg/L; against Psdm. Bonn, above 64 mg/L; in the experiment with Staph 25701, 1 mg/L (≈ 2.83 µM); in the experiment with Staph. 133, 1 mg/L (≈ 2.83 µM); with Staph. 48N, 2 mg/L (≈ 5.66 µM). Moreover, in the experiment with Staph. 9TV, the MIC worked out at 0.5 mg/L (≈ 1.41 µM).
With `CSc1nc2ccc(N3C[C@H](CNC(C)=O)OC3=O)cc2s1` [Example 24, (5S )-3-(2-Methylthio-benzo[4,5-d]thiazol-6-yl)-5-acetylaminomethyl-oxazolidin-2-one], the MIC with E. coli Neumann is above 64 mg/L; in the experiment on Klebs. 57 USA, above 64 mg/L; in the experiment on Psdm. Bonn, above 64 mg/L; in the experiment on Staph 25701, 0.25 mg/L (≈ 0.741 µM); with Staph. 133, 2 mg/L (≈ 5.93 µM); against Staph. 48N it was 1 mg/L (≈ 2.96 µM). In the experiment on Staph. 9TV, this molecule had an MIC of 0.25 mg/L (≈ 0.741 µM).
As to `CC(=O)NC[C@H]1CN(c2ccc3nc(S(=O)(=O)Cc4ccccc4)sc3c2)C(=O)O1` [Example 33, (5S)-3-(2-Benzylsulphonyl-benzo[4,5-d]thiazol-6-yl)-5-acetylaminomethyloxazolidin-2-one], the MIC was above 64 mg/L against E. coli Neumann; above 64 mg/L against Klebs. 57 USA; above 64 mg/L with Psdm. Bonn; 2 mg/L (≈ 4.49 µM) in the experiment on Staph 25701; 4 mg/L (≈ 8.98 µM) against Staph. 133; 2 mg/L (≈ 4.49 µM) with Staph. 48N. In the experiment with Staph. 9TV, this molecule yielded an MIC of 4 mg/L (≈ 8.98 µM).
As to `CC(=O)NC[C@H]1CN(c2ccc3nc(C)oc3c2)C(=O)O1` [Example 25, (5S)-3-(2-Methyl-benzo[4,5-d]oxazol-6-yl)-5-acetamino-methyl-oxazolidin-2-one], the MIC in the experiment on E. coli Neumann is above 64 mg/L; against Klebs. 57 USA, above 64 mg/L; with Psdm. Bonn, above 64 mg/L; in the experiment with Staph 25701, 1 mg/L (≈ 3.46 µM); in the experiment on Staph. 133, 2 mg/L (≈ 6.91 µM); against Staph. 48N it was 1 mg/L (≈ 3.46 µM). The MIC in the experiment on Staph. 9TV came out at 1 mg/L (≈ 3.46 µM).
In the case of `CC(=O)NC[C@H]1CN(c2ccc3nc(S(C)(=O)=O)sc3c2)C(=O)O1` [Example 37], the MIC against E. coli Neumann was above 64 mg/L; in the experiment on Klebs. 57 USA it was above 64 mg/L; in the experiment with Psdm. Bonn it was above 64 mg/L; against Staph 25701 it was 1 mg/L (≈ 2.71 µM); in the experiment on Staph. 133, 2 mg/L (≈ 5.41 µM); against Staph. 48N it was 2 mg/L (≈ 5.41 µM). The molecule also showed an MIC with Staph. 9TV of 1 mg/L (≈ 2.71 µM).
As to `CC(=O)NC[C@H]1CN(c2ccc3nc(C)sc3c2)C(=O)O1` [Example 26], the MIC was above 64 mg/L against E. coli Neumann; above 64 mg/L with Klebs. 57 USA; above 64 mg/L against Psdm. Bonn; 1 mg/L (≈ 3.27 µM) against Staph 25701; 2 mg/L (≈ 6.55 µM) against Staph. 133; 1 mg/L (≈ 3.27 µM) in the experiment on Staph. 48N. The MIC in the experiment with Staph. 9TV is 1 mg/L (≈ 3.27 µM).
`CC(=O)NC[C@H]1CN(c2ccc3nc([S+]([O-])Cc4ccccc4)sc3c2)C(=O)O1` (stereo partly shown) [Example 36]: the MIC is above 64 mg/L against E. coli Neumann; above 64 mg/L against Klebs. 57 USA; above 64 mg/L against Psdm. Bonn; 4 mg/L (≈ 9.31 µM) with Staph 25701; 4 mg/L (≈ 9.31 µM) against Staph. 133; 4 mg/L (≈ 9.31 µM) in the experiment on Staph. 48N. Moreover, in the experiment on Staph. 9TV, the MIC amounted to 2 mg/L (≈ 4.66 µM).
